Experimental data reported in patent publication US10328075B2, “Method of treatment and compounds for use therein” (Baker Heart and Diabetes Institute, priority 2015, dated 2019).
No end group written: not given here.

Assays:
[1] = tested on: myocardial I-R injury in C57BL/6 mice; test: Myocardial I-R in mice: systemic inflammation after 48 h reperfusion; type: in vivo, mouse
Experimental: (§1) Male C57BL/6 mice were breed and housed in the AMREP Animal Centre and maintained under a 12 h light/dark cycle. After anaesthesia (i.p., ketamine 80 mg/kg, xylazine 20 mg/kg and atropine 1.2 mg/kg), mice were randomly assigned to 24 h, 48 h and 7 days reperfusion groups and underwent reversible left arterial descending (LAD) ligation as described (Gao XM, 2011; JMCC, 50; Gao XM, 2000, JMCC). Following sedation, mice were intubated and ventilated (Harvard apparatus, MA, USA) with room air mixed with oxygen (tidal volume 0.25 mL, 150 breath/min), and placed on a heating pad. A left thoractomy will be made via the ˜third intercostal space, where the beating heart was located.
(§2) The LAD was reversibly ligated using 7-0 silk suture with a slipknot enclosing two releasing rings. Regional ischaemia was confirmed by pale colour of the ligated area. Air was then evacuated from the chest, the cavity was closed and normal respiration was restored. After 40-60 min of ischaemia, blood flow through the left coronary artery was re-established by releasing the slipknot. Sham-operated mice underwent identical surgical procedures except the coronary arteries were not ligated. Three cohorts of mice were scheduled. Cohort 1 was subjected to 40 min ischaemic-24 h reperfusion for the assessment of cardiac necrosis. Cohort 2 was subjected to 60 min occlusion with 48 h reperfusion for the quantification of cardiac and systemic inflammation. The last cohort was subjected to 7 d reperfusion and early cardiac fibrosis was assessed.
(§3) Treatment with study drugs: Animals were randomly assigned to different groups and all treatments were administrated 5 min prior to reperfusion of the LAD. The peptide Ac2-26 (1 mg kg^−1) (Chemieliva, Chongqing, China) and its vehicle (10% dimethyl sulfoxide (DMSO) in saline) were intravenously (i.v.) injected via the tail vein. […] Mice then received drug or vehicle injections daily until the experimental endpoint. The two different vehicles groups reflect different study drug solubility and administration routes.
Assessment of systemic inflammation: Blood samples collected from mice subjected to 60 min ischaemia and 48 h reperfusion were diluted 1:20 into 2% acetic acid to lyse the red blood cells for total WBC counting, using a haemocytometer. Blood smears were stained using a hemacolor staining kit (Merck millipore, Melbourne, Australia) and then examined under 60× magnification using an Olympus Biological CHS microscope (Olympus Inc., Tokyo, Japan) for manual counting of neutrophils, lymphocytes and monocytes per 100 WBCs.
Animal Surgery: Adult C57BL/6 mice were randomly assigned to myocardial ischemia-reperfusion (I-R) injury or sham in vivo. Anesthetized mice (ketamine 80 mg/kg, xylazine 20 mg/kg and atropine 1.2 mg/kg, KXA, i.p.) underwent reversible left arterial descending (LAD) ligation as described (Gao et al. 2000 & Gao et al. 2011). Following sedation, mice were intubated and ventilated (Harvard apparatus, MA, USA) with room air mixed with oxygen (tidal volume 0.25 mL, 150 breaths/min), and placed on a heating pad. A left thoractomy was be made around the third intercostal space, where the beating heart was located. The LAD was reversibly ligated using 7-0 silk suture with a slipknot enclosing two releasing rings. Regional ischemia was confirmed by pale color of the ligated area. Air was then evacuated from the chest, the cavity closed and normal respiration restored. Blood flow through the left coronary artery was subsequently re-established at the end of the ischemic period (i.e. reperfusion) by releasing the slipknot. Three distinct cohorts of mice were studied. Cohorts 1 and 2 were subjected to 40 mins ischemia with either 24 h or 7 days reperfusion, optimal timepoints for the assessment of cardiac necrosis and early cardiac remodeling in vivo, respectively. Cohort 3 was subjected to 60 mins LAD occlusion with 48 h reperfusion, for the quantification of cardiac and systemic inflammation. […]

[2] = tested on: myocardial I-R injury in C57BL/6 mice; test: Myocardial I-R in mice: cardiac fibrosis, apoptosis and remodelling after 7 days reperfusion; type: in vivo, mouse; conditions: for Effect on cardiac remodeling 7 days post I-R: 50 mg/kg i.p.
Experimental: as §1, §2, §3
Assessment of cardiac histology and fibrosis: LV hearts fixed in NBF after 40 min ischaema and 7 d reperfusion were embedded in paraffin by the Alfred Pathology Service (Melbourne, Australia) and sectioned at 4 μm with a Leica 2135 microtome (Leica Microsystems, Wetzlar, Germany). Sections were stained with haematoxylin and eosin (H&E) for assessment of myocardial morphology, or picrosirius red (0.1%, Fluka, Bucks, Switzerland; pH2) for cardiac collagen deposition. Images were taken at 1.25× to capture the whole LV. To examine the local infarct area, images were collected at 20× using the microscope (Olympus BX61, Olympus Inc., Ontario, Canada) and QCapture Pro software (version 5.1 for Windows, Media Cybernetic Inc., Maryland, USA). H&E images were scored blindly in random order on a scale of 1 to 5, based on intensity of blue staining of nuclei (1=least, 5=most, classified by independent observer). The area of picrosirius red staining (% LV area) was quantitatively measured using Image-Pro Plus software (Media Cybernetic Inc., Maryland, USA) for sets of LV slides from 48 h reperfusion and 7 d reperfusion study.
Animal Surgery: Adult C57BL/6 mice were randomly assigned to myocardial ischemia-reperfusion (I-R) injury or sham in vivo. Anesthetized mice (ketamine 80 mg/kg, xylazine 20 mg/kg and atropine 1.2 mg/kg, KXA, i.p.) underwent reversible left arterial descending (LAD) ligation as described (Gao et al. 2000 & Gao et al. 2011). Following sedation, mice were intubated and ventilated (Harvard apparatus, MA, USA) with room air mixed with oxygen (tidal volume 0.25 mL, 150 breaths/min), and placed on a heating pad. A left thoractomy was be made around the third intercostal space, where the beating heart was located. The LAD was reversibly ligated using 7-0 silk suture with a slipknot enclosing two releasing rings. Regional ischemia was confirmed by pale color of the ligated area. […]

[3] = 48 h reperfusion, listed as Cmpd17b

Row | Compound | Effect on circulating IL-1β ([1]; 48 h reperfusion) | Effect on circulating lymphocytes ([1]; 48 h reperfusion) | Effect on circulating monocytes ([1]; 48 h reperfusion) | Effect on circulating neutrophils ([1]; 48 h reperfusion) | Effect on total circulating WBC ([1]; 48 h reperfusion) | Effect on circulating lymphocytes [1, 3] | Effect on total circulating WBC [1, 3] | Effect on cardiac remodeling 7 days post I-R [2] | Effect on I-R-induced cardiac fibrosis (picrosirius red) ([2]; 7 days reperfusion) | Effect on LV apoptosis in the infarct area ([2]; 7 days reperfusion) | Cardioprotection: Adverse remodelling ([2]; Table 9) | Effect on systemic inflammation / early inflammatory response 48 h post I-R ([1]; 50 mg/kg i.p.)
1 | COc1cccc(Cc2cc(C)nn(C(C)C(=O)Nc3ccc(Br)cc3)c2=O)c1 (stereo not drawn) [BIDI-001, N-(4-bromophenyl)-2-[5-(3-methoxybenzyl)-3-methyl-6-oxo-6H-pyridazin-1-yl]-propionamide] | significantly blunted | tended to reduce | without affecting | absent | tended to reduce | significantly blunted | absent | reduces cardiac remodeling | absent | significantly attenuated | ↓↓ | –
2 | CC(C)C1C(NC(=O)Nc2ccc(Cl)cc2)C(=O)N(c2ccccc2)N1C (stereo not drawn) [BIDI-002] | – | significantly increased | significantly increased | – | – | – | – | lacked these cardioprotective actions | persist | – | – | not
3 | Ac2-26: Annexin-A1 N-terminal peptide, peptide ANX-A1 mimetic (Ac-AMVSEFLKQAWFIENEEQEYVQTVK; UniProt P04083 2-26, looked up, fragment) | – | – | – | – | did not significantly alter | – | – | – | tended to be inhibited | – | – | –
